Source: patent publication US20240132431A1, “METHOD FOR ALKYLATING ACIDIC FUNCTIONAL GROUP” (Chugai Seiyaku Kabushiki Kaisha, priority 2021, published 2024)
Like-named read-outs stand apart in the source and are kept apart here.

Columns and labels:
[1] = molecular target: T1, Bcl-2 protein (Recombinant Human Bcl-2 Protein) (Homo sapiens, UniProt P10415); test: Binding evaluation of mixture library compounds to Bcl-2 using AS-MS (affinity selection mass spectrometry)
T1 construct: purchased Novus NBP2-34889
Outline: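 ASMS Ratio (%) was calculated as (A−C)/B×100, where A is the protein sample after SEC, B the protein-free sample without SEC and C the protein-free sample after SEC. Each compound was at […] in a 1200-member pool with 20 μM Bcl-2, incubated 1 h at 23° C.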

human Bcl-2 protein = molecular target: T2, human Bcl-2 protein (Homo sapiens, UniProt P10415); test: Binding evaluation of compounds to Bcl-2 by surface plasmon resonance (SPR); conditions: Biacore T200, biotinylated human Bcl-2 immobilized on Sensor Chip SA, 15° C., compounds found by AS-MS evaluation of synthesized library
T2 construct: purchased Novus Biologicals
Procedure: In order to analyze the binding affinity of the compounds shown in [Table AK-O1] and synthesized in Example 8 to Bcl-2, the surface plasmon resonance method was used. Biacore T200 (GE Healthcare) was used as the apparatus, and HBS (10 mM HEPES-NaOH, 150 mM NaCl, pH 7.4) to which 1 mM DTT, 3 mM EDTA, 0.01% Tween 20, and 4% DMSO had been added was used as the running buffer. The human Bcl-2 protein (Novus Biologicals) was biotinylated using EZ-Link Sulfo-NHS-LC-LC-biotin (Thermofisher scientific) and immobilized on the surface of Sensor Chip SA (GE Healthcare). Thereafter, compound solutions of multiple concentrations and the running buffer (blank) were added to the Bcl-2 immobilized surface to obtain the binding response of the compounds. The measurement was carried out at 15° C.

[2] = cited from earlier work; for Base/pKBH^+ (CH3CN): pKa of conjugate acid of the base in CH3CN; for Base/pKBH+ (CH3CN): transcribed from the Aldrich web site for phosphazene bases
[3] = first value in parentheses, (A−C)/B×100, 1200-compound mixture, Bcl-2 20 μM
[4] = second value in parentheses, (A−C)/B×100, 1200-compound mixture, Bcl-2 20 μM
[5] = Table 3-5-3, from Aldrich web site and Chem. Eur. J. 2021, 27, 4216-4229
[6] = Table 3-5-1, transcribed from Aldrich web site
[7] = Table 3-5-2, transcribed from Aldrich web site

T1 sequence (P10415 whole entry): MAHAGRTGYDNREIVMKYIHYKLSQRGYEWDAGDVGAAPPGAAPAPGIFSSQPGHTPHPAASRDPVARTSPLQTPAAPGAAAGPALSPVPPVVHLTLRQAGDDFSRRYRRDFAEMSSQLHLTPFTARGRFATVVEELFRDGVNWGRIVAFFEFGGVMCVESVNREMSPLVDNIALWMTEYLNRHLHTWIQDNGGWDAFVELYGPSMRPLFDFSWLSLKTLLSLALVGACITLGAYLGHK
T2 sequence (P10415 whole entry): as above

Compound: CCOc1cncc(-c2ccc(CN3CCN(c4ccc(C(=O)NS(=O)(=O)c5ccc(NCCSc6ccccc6)c(C(F)(F)F)c5)nn4)CC3)cc2C)c1 [B2R074-01, 6-[4-[[4-(5-ethoxypyridin-3-yl)-3-methylphenyl]methyl]piperazin-1-yl]-N-[4-(2-phenylsulfanylethylamino)-3-(trifluoromethyl)phenyl]sulfonylpyridazine-3-carboxamide]
- ASMS ratio (%) [1, 3]: 22.4%
- ASMS ratio (%) ([1]; n = 1): 22.4%
- ASMS ratio (%) ([1]; n = 2): 25.4%
- ASMS ratio (%) [1, 4]: 25.4%
- Equilibrium dissociation constant KD (human Bcl-2 protein): Binding not observed

Compound: CCOc1cccc(-c2ccc(CN3CCN(c4ccc(C(=O)N(C)CC56CC7CC(CC(C7)C5)C6)nn4)CC3)cc2C)c1 [B3A073-01, N-(1-adamantylmethyl)-6-[4-[[4-(3-ethoxyphenyl)-3-methylphenyl]methyl]piperazin-1-yl]-N-methylpyridazine-3-carboxamide]
- ASMS ratio (%) n = 1 ([1]; AS-MS on the mixture of 1200 library compounds, ASMS Ratio(%)=(A−C)/B×100, replicate n = 1): 31.3%
- ASMS ratio (%) n = 2 ([1]; AS-MS on the mixture of 1200 library compounds, ASMS Ratio(%)=(A−C)/B×100, replicate n = 2): 28.6%
- ASMS ratio (%) [1, 3]: 31.3%
- ASMS ratio (%) [1, 4]: 28.6%
- Equilibrium dissociation constant KD (human Bcl-2 protein): Binding not observed

Compound: CN(C)C(=NC(C)(C)C)N(C)C [BTMG, 2-tert-butyl-1,1,3,3-tetramethylguanidine]
- Base/pKBH^+ (CH3CN) [2, 5]: (23.6)

Compound: CC(C)(C)N=P(N1CCCC1)(N1CCCC1)N1CCCC1 [BTPP, tert-Butylimino-tri(pyrrolidino)phosphorane]
- Base/pKBH^+ (CH3CN) [2, 6]: (28.4)
- Base/pKBH^+ (CH3CN) [2, 7]: (28.4)
- Base/pKBH^+ (CH3CN) [2, 5]: (28.4)

Compound: CCN(C(C)C)C(C)C [DIPEA, N,N-Diisopropylethylamine]
- pKBH+ value in CH3CN ([2]; Example 3-5-3, Aldrich web site and Chem. Eur. J. 2021, 27, 4216-4229): 18.8
- Base/pKBH^+ (CH3CN) [2, 5]: (18.8)

Compound: CN(C)P(=NC(C)(C)C)(N(C)C)N(C)C [P1tBu, tert-Butylimino-tris(dimethylamino)phosphorane]
- Base/pKBH+ (CH3CN) ([2]; Table 2-2): 26.9
- Base/pKBH+ (CH3CN) ([2]; Table 3-4): P1tBu (26.9)
- Base/pKBH^+ (CH3CN) [2, 6]: (26.9)
- Base/pKBH^+ (CH3CN) [2, 7]: (26.9)
- Base/pKBH^+ (CH3CN) [2, 5]: (26.9)

Compound: CCN=P(N=P(N(C)C)(N(C)C)N(C)C)(N(C)C)N(C)C [P2Et, 1-Ethyl-2,2,4,4,4-pentakis(dimethylamino)-2λ^5,4λ^5-catenadi(phosphazene)]
- Base/pKBH+ (CH3CN) ([2]; Table 2-2): 32.9
- Base/pKBH+ (CH3CN) ([2]; Table 3-1): (32.9)
- Base/pKBH^+ (CH3CN) ([2]; Table 3-3, transcribed from Aldrich web site): (32.9)
- Base/pKBH^+ (CH3CN) [2, 5]: (32.9)

Compound: CN(C)P(=NC(C)(C)C)(N=P(N(C)C)(N(C)C)N(C)C)N(C)C [P2tBu, 1-tert-Butyl-2,2,4,4,4-pentakis(dimethylamino)-2λ^5,4λ^5-catenadi(phosphazene)]
- Base/pKBH+ (CH3CN) ([2]; Table 3-1): (33.5)
- Base/pKBH+ (CH3CN) ([2]; Table 3-4): P2tBu (33.5)

Compound: C1CN=C2NCCCN2C1 [TBD, 1,5,7-triazabicyclo[4.4.0]dec-5-ene]
- Base/pKBH^+ (CH3CN) [2, 5]: (26.0)
